In ChEMBL document CHEMBL1129232, “Synthesis and anti-HIV activity of dihydroisoxazole 6-chloropurine and adenine” (Bioorg Med Chem Lett, 1996):

What was measured:
[1] = Median effective dose required for anti HIV-1 activity in PBM cells(Human lymphocytes); format: functional, cell-based; conditions: PBMC
[2] = tested on: CCRF-CEM; test: Compound was evaluated for cytotoxicity against CEM cells; format: functional, cell-based, Homo sapiens
[3] = Compound was evaluated for cytotoxicity against human lymphocytes (PBM cells); format: functional, cell-based; conditions: PBMC
[4] = tested on: Vero; test: Compound was evaluated for cytotoxicity against Vero cells; format: functional, cell-based; conditions: Chlorocebus sabaeus

SMILES | EC50 [1] [µM] | IC50 ([2]; ccrf-cem) [µM] | IC50 [3] [µM] | IC50 [4] [µM] | IC50 ([2]; Homo sapiens, CCRF-CEM) [µM]
Cc1cn([C@H]2C[C@H](N=[N+]=[N-])[C@@H](CO)O2)c(=O)[nH]c1=O [ZIDOVUDINE] | 0.004 | 14 | > 100 |  | 
OCC1=NOC(n2cnc3c(Cl)ncnc32)C1 (stereo unspecified) | 34.6 |  | 73.5 | > 100 | 35.2
Nc1ncnc2c1ncn2C1CC(CO)=NO1 (stereo unspecified) | 54.8 |  | > 100 | > 100 | > 100
